One data set concerns sodium channel. Kind of data set: Guanidine influx assay (14C-guanidine radiotracer flux, in vitro). It is filed as cell-based, human or rat. The conditions noted are these: guanidine influx assay using a known cell line that expresses a sodium channel. The procedure, abridged: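 Sodium channel block is measured as reduced 14C-guanidine uptake in cells stably expressing human or rat channels, stimulated with aconitine. Potency is given as IC50 from a four-parameter curve.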

The next data set has as its target CYP3A4 (Homo sapiens, UniProt P08684). Description: Cytochrome P450 (CYP450) Inhibition Assay, CYP3A4 (Vivid fluorescence, BOMCC substrate). The settings on record: human, P450 Baculosomes (recombinant CYP3A4), probe BOMCC (Vivid substrate).

Chain of CYP3A4 (P08684 whole entry): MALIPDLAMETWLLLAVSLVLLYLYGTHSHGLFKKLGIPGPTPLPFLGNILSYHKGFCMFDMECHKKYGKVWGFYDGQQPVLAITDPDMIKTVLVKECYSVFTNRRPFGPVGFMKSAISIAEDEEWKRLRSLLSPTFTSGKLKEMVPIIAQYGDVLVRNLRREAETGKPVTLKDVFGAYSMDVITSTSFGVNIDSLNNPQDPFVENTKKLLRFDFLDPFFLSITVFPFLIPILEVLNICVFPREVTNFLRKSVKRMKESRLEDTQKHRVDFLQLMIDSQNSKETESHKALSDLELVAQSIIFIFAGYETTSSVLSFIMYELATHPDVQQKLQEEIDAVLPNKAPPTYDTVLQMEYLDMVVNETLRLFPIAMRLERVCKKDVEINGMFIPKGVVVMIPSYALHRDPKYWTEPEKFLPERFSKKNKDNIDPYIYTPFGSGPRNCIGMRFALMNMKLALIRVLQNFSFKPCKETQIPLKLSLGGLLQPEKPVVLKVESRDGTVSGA

The compound `O=C1COc2cc3c(cc21)C1(CO3)C(=O)N(C[C@H]2CCCO2)c2ccccc21` (stereo partly drawn) [Example 11.60, 1′-[(2R)-tetrahydrofuran-2-ylmethyl]spiro[benzo[1,2-b:5,4-b′]difuran-3,3′-indole]-2′,5(1′H,6H)-dione] displayed a melting point of 142 to 144 °C. Also, the IC50 with sodium channel lay in the range of 100 to 1000 nM. Further, the inhibition at 10 µM on CYP3A4 is below 50%.
On the same counts, the results for `CN1C(=O)CC[C@H]1CN1C(=O)C2(COc3cc4c(cc32)CCO4)c2ccccc21` (stereo partly drawn) [Example 11.70, 1′-{[(2S)-1-methyl-5-oxopyrrolidin-2-yl]methyl}-5,6-dihydrospiro[benzo[1,2-b:5,4-b′]difuran-3,3′-indol]-2′(1′H)-one] are 72 to 76 °C, 1000 to 10000 nM and above 50%.
On the same counts, the results for `O=C1N(Cc2noc(C(F)(F)F)n2)c2ccccc2C12COc1cc3c(cc12)OCO3` (stereo not drawn) [Example 11.72, 1-{[5-(trifluoromethyl)-1,2,4-oxadiazol-3-yl]methyl}spiro[furo[2,3-f][1,3]benzodioxole-7,3′-indol]-2′(1′H)-one] are 139 to 140 °C, 1 to 100 nM and above 50%.
`CC(C)NC(=O)N1CCCC(CCN2C(=O)C3(COc4cc5c(cc43)OCO5)c3ccccc32)C1` (stereo not drawn) [Example 11.73, N-isopropyl-3-[2-(2′-oxospiro[furo[2,3-f][1,3]benzodioxole-7,3′-indol]-1′(2′H)-yl)ethyl]piperidine-1-carboxamide] showed a melting point of 206 to 208 °C. Also, in the data set with sodium channel, the IC50 was 100 to 1000 nM. Further, the inhibition at 10 µM on CYP3A4 was above 50%.
The matching figures for `N#Cc1csc(CN2C(=O)C3(COc4cc5c(cc43)OCO5)c3ccccc32)c1` (stereo not drawn) [Example 11.74, 5-[(2′-oxospiro[furo[2,3-][1,3′]benzodioxole-7,3′-indol]-1′(2′H)-yl)methyl]thiophene-3-carbonitrile]: 207 to 209 °C, 1 to 100 nM and above 50%.
Consider `N#Cc1cccc2c1NC(=O)C21COc2cc3c(cc21)OCO3` (stereo not drawn) [Example 11.75, 2′-oxo-1′,2′-dihydrospiro[furo[2,3-f][1,3]benzodioxole-7,3′-indole]-7′-carbonitrile], for which the melting point lay within 205 to 207 °C. Also, the IC50 in the data set on sodium channel was in the range of 100 to 1000 nM. Besides, at CYP3A4, the inhibition at 10 µM was above 50%.
In the case of `O=C1N(Cc2ncccc2Br)c2ccccc2C12COc1cc3c(cc12)OCCO3` (stereo not drawn) [Example 11.78], the melting point fell in the range of 217 to 218 °C. For the same compound, in the data set on sodium channel, the IC50 fell in the range of 1 to 100 nM. For the same compound, the inhibition at 10 µM on CYP3A4 is below 50%.
The matching figures for `CS(=O)(=O)c1cccnc1CN1C(=O)C2(COc3cc4c(cc32)OCCO4)c2ccccc21` (stereo not drawn) [Example 11.79]: above 250 °C, 100 to 1000 nM and below 50%.
Consider `N#Cc1cccnc1CN1C(=O)C2(COc3cc4c(cc32)OCCO4)c2ccccc21` (stereo not drawn) [Example 11.80], for which the melting point was 230 to 233 °C. The IC50 in the data set with sodium channel was in the range of 1 to 100 nM. The inhibition at 10 µM on CYP3A4 is below 50%.
On to `O=C1N(Cc2ncccc2C(F)F)c2ccccc2[C@]12COc1cc3c(cc12)OCCO3` [Example 11.81, (8S)-1′-{[3-(difluoromethyl)pyridin-2-yl]methyl}-2,3-dihydrospiro[furo[2,3-g][1,4]benzodioxine-8,3′-indol]-2′(1′H)-one], for which the melting point was in the range of 181 to 182 °C. Besides, the IC50 with sodium channel was 1 to 100 nM. The inhibition at 10 µM on CYP3A4 is below 50%.
The matching figures for `Cc1nc(-c2cccc(CN3C(=O)C4(COc5cc6c(cc54)OCCO6)c4ccccc43)c2)no1` (stereo not drawn) [Example 11.83, 1′-[3-(5-methyl-1,2,4-oxadiazol-3-yl)benzyl]-2,3-dihydrospiro[furo[2,3-g][1,4]benzodioxine-8,3′-indol]-2′(1′H)-one]: 90 to 95 °C, 1 to 100 nM and above 50%.
The matching figures for `Cc1nc(-c2ccc(CN3C(=O)C4(COc5cc6c(cc54)OCCO6)c4ccccc43)cc2)no1` (stereo not drawn) [Example 11.84, 1′-[4-(5-methyl-1,2,4-oxadiazol-3-yl)benzyl]-2,3-dihydrospiro[furo[2,3-g][1,4]benzodioxine-8,3′-indol]-2′(1′H)-one]: 174 to 175 °C, 1 to 100 nM and below 50%.
On the same counts, the results for `O=C(O)c1cccc(CN2C(=O)C3(COc4cc5c(cc43)OCCO5)c3ccccc32)c1` (stereo not drawn) [Example 11.86, 3-[(2′-oxo-2,3-dihydrospiro[furo[2,3-g][1,4]benzodioxine-8,3′-indol]-1′(2′H)-yl)methyl]benzoic acid] are 254 to 258 °C, 1000 to 10000 nM and below 50%.
In the case of `O=C(O)c1ccc(CN2C(=O)C3(COc4cc5c(cc43)OCCO5)c3ccccc32)cc1` (stereo not drawn) [Example 11.87, 4-[(2′-oxo-2,3-dihydrospiro[furo[2,3-g][1,4]benzodioxine-8,3′-indol]-1′(2′H)-yl)methyl]benzoic acid], the melting point fell in the range of 234 to 237 °C. In addition, the IC50 in the data set on sodium channel fell in the range of 1000 to 10000 nM. Further, the inhibition at 10 µM at CYP3A4 is below 50%.
In turn, `O=C1N(Cc2noc(C(F)(F)F)n2)c2ccccc2C12COc1cc3c(cc12)OCCO3` (stereo not drawn) [Example 11.90, 1′-{[5-(trifluoromethyl)-1,2,4-oxadiazol-3-yl]methyl}-2,3-dihydrospiro[furo[2,3-g][1,4]benzodioxine-8,3′-indol]-2′(1′H)-one] had a melting point of 159 to 160 °C. Moreover, the IC50 with sodium channel was 1 to 100 nM. Further, the inhibition at 10 µM at CYP3A4 is above 50%.
The matching figures for `O=C1N(Cc2nnc(C(F)(F)F)o2)c2ccccc2C12COc1cc3c(cc12)OCCO3` (stereo not drawn) [Example 11.92, 1′-{[5-(trifluoromethyl)-1,3,4-oxadiazol-2-yl]methyl}-2,3-dihydrospiro[furo[2,3-g][1,4]benzodioxine-8,3′-indol]-2′(1′H)-one]: 137 to 139 °C, 1 to 100 nM and below 50%.
The matching figures for `CC(C)N1CCC(CN2C(=O)C3(COc4cc5c(cc43)OCCO5)c3ccccc32)CC1.Cl` (stereo not drawn) [Example 11.100, 1′-{[1-(1-methylethyl)piperidin-4-yl]methyl}-2,3-dihydrospiro[furo[2,3-g][1,4]benzodioxine-8,3′-indol]-2′(1′H)-one hydrochloride]: 213 to 216 °C, 1000 to 10000 nM and above 50%.
On the same counts, the results for `O=C1N(CC2CNCCO2)c2ccccc2C12COc1cc3c(cc12)OCCO3` (stereo not drawn) [Example 11.102, 1-(morpholin-2-ylmethyl)-2,3-dihydrospiro[furo[2,3-g][1,4]benzodioxine-8,3′-indol]-2′(1′1-1)-one] are 154 to 159 °C, 1000 to 10000 nM and below 50%.
The compound `CC(C)N1CCOC(CN2C(=O)C3(COc4cc5c(cc43)OCCO5)c3ccccc32)C1` (stereo not drawn) [Example 11.103, 1′-{[4-(1-methylethyl)morpholin-2-yl]methyl}-2,3-dihydrospiro[furo[2,3-g][1,4]benzodioxine-8,3′-indol]-2′(1′H)-one] registered a melting point of 102 to 125 °C. The IC50 in the data set with sodium channel was in the range of 100 to 1000 nM. Besides, the inhibition at 10 µM on CYP3A4 is above 50%.
`CN1CCOC(CN2C(=O)C3(COc4cc5c(cc43)OCCO5)c3ccccc32)C1` (stereo not drawn) [Example 11.104, 1-[(4-methylmorpholin-2-yl)methyl]-2,3-dihydrospiro[furo[2,3-g][1,4]benzodioxine-8,3′-indol]-2′(1′H)-one]: the melting point lay within 102 to 112 °C. Further, in the data set with sodium channel, the IC50 fell in the range of 100 to 1000 nM. On CYP3A4, the inhibition at 10 µM was above 50%.
The compound `CN1CCO[C@H](CN2C(=O)[C@@]3(COc4cc5c(cc43)OCCO5)c3ccccc32)C1` [Example 11.106, (8S)-1′-{[(2S)-4-methylmorpholin-2-yl]methyl}-2,3-dihydrospiro[furo[2,3-g][1,4]benzodioxine-8,3′-indol]-2′(1′H)-one] gave a melting point of 85 to 90 °C. Also, the IC50 in the data set on sodium channel was in the range of 1 to 100 nM. Also, at CYP3A4, the inhibition at 10 µM is below 50%.
`O=C1N(Cc2ncccc2C(F)(F)F)c2ccccc2C12COc1ccc3nonc3c12` (stereo not drawn) [Example 11.107, 1′-{[3-(trifluoromethyl)pyridin-2-yl]methyl}spiro[furo[3,2-e][2,1,3]benzoxadiazole-8,3′-indol]-2′(1′H)-one]: the melting point was in the range of 212 to 215 °C. The half-maximal inhibitory concentration (IC50) in the data set with sodium channel fell in the range of 1000 to 10000 nM. The inhibition at 10 µM at CYP3A4 is above 50%.
On the same counts, the results for `O=C1N(Cc2ncccc2C(F)(F)F)c2ccccc2C12COc1c(Cl)cc3c(c12)OCCO3` (stereo not drawn) [Example 11.108, 6-chloro-1′-{[3-(trifluoromethyl)pyridin-2-yl]methyl}-2,3-dihydrospiro[furo[3,2-f][1,4]benzodioxine-9,3′-indol]-2′(1′H)-one] are 273 to 275 °C, 1000 to 10000 nM and below 50%.
The matching figures for `O=C1N(Cc2ncccc2C(F)(F)F)c2ccccc2C12COc1ccc3c(c12)OCCO3` (stereo not drawn) [Example 11.109, 1′-{[3-(trifluoromethyl)pyridin-2-yl]methyl}-2,3-dihydrospiro[furo[3,2-f][1,4]benzodioxine-9,3′-indol]-2′(1′H)-one]: 245 to 247 °C, 1000 to 10000 nM and below 50%.
On the same counts, the results for `O=C1N(Cc2ccc(C(F)F)o2)c2ccccc2C12COc1cc3c(cc12)OCCO3` (stereo not drawn) [Example 11.110, 1-{[5-(difluoromethyl)furan-2-yl]methyl}-2,3-dihydrospiro[furo[2,3-g][1,4]benzodioxine-8,3′-indol]-2′(1′H)-one] are 173 to 175 °C, 1 to 100 nM and above 50%.

Broadly, the IC50 is the concentration needed to halve the response being measured. A word on the melting point: it is the temperature, or range, at which the solid turns liquid. Usually inhibition stands for the relative decrease from the control value, in per cent.

Values taken from patent US8263606B2 (Xenon Pharmaceuticals Inc., priority 2008, dated 2012).
